Experimental data published in US6656958B2, “Substituted pyridine compounds useful for controlling chemical synaptic transmission” (Abbott Laboratories, priority 2000, dated 2003).

Tests used:
[1] = target: neuronal nicotinic acetylcholine receptors (Rattus norvegicus, UniProt P09483+P12390); experiment: [3H]-cytisine binding to neuronal nicotinic acetylcholine receptors, crude synaptic membranes from whole rat brain; conditions: [3H]-CYT 1.25 nM, 60 minutes at 4° C., K1 from IC50 by Cheng and Prusoff correction
Sequence of neuronal nicotinic acetylcholine receptors (P09483 31-630): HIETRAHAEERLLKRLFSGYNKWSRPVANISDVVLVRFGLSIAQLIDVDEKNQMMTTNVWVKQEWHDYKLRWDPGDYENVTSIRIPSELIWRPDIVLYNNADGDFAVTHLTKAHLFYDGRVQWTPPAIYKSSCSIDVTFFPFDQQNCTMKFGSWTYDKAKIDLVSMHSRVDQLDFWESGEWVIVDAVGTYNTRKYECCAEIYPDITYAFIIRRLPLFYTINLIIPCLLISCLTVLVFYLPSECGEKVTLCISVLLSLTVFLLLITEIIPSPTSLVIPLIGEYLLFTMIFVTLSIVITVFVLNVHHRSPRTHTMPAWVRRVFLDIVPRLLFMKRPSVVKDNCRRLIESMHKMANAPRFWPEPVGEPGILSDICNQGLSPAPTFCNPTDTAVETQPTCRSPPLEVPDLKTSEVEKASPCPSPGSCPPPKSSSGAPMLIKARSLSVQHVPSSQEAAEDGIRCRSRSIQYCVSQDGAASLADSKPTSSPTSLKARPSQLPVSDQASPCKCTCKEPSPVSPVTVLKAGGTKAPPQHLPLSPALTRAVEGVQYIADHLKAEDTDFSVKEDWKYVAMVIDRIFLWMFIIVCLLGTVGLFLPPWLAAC
Sequence of neuronal nicotinic acetylcholine receptors (P12390 25-500): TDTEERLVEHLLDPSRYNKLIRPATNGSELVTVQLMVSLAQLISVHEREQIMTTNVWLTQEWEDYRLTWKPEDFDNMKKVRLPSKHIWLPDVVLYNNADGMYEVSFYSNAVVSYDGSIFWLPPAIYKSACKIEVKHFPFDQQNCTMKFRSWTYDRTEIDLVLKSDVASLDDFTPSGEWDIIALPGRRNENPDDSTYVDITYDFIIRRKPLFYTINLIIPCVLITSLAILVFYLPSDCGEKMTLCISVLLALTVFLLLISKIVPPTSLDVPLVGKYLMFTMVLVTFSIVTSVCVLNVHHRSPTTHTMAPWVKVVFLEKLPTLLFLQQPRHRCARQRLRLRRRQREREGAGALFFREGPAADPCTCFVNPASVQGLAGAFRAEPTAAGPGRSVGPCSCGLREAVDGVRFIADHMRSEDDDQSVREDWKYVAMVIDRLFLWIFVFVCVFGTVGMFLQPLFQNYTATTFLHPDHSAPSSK
Experimental: The in vitro protocols for determination of nicotinic acetylcholine channel receptor binding potencies of ligands was determined as follows.
Binding of [^3H]-cytisine ([^3H]-CYT) to neuronal nicotinic acetylcholine receptors was accomplished using crude synaptic membrane preparations from whole rat brain (Pabreza et al., Molecular Pharmacol., 1990, 39:9). Washed membranes were stored at −80° C. prior to use. Frozen aliquots were slowly thawed and resuspended in 20 volumes of buffer (containing: 120 mM NaCl, 5 mM KCl, 2 mM MgCl2, 2 mM CaCl2 and 50 mM Tris-Cl, pH 7.4 @4° C.). After centrifuging at 20,000×g for 15 minutes, the pellets were resuspended in 30 volumes of buffer.
The test compounds were dissolved in water to make 10 mM stock solutions.
Samples were incubated for 60 minutes at 4° C., then rapidly filtered through Whatman GF/B filters presoaked in 0.5% polyethyleneimine using 3×4 mL of ice-cold buffer. The filters are counted in 4 mL of Ecolume® (ICN). Nonspecific binding was determined in the presence of 10 μM (−)-nicotine and values were expressed as a percentage of total binding. IC50 values were determined with a four-parameter non-linear regression and IC50 values were converted to K1 values using the Cheng and Prusoff correction (K1=IC50/(1+[ligand]/Kd of ligand).
Each Example number corresponds to the synthetic Examples described above.

[2] = tested on: mice (hot plate paradigm); experiment: mouse hot plate paradigm (analgesia, tenth jump latency); assay type: in vivo; conditions: footnote symbols: no significant effect at the stated dose, intraperitoneal, 30 minutes prior to testing, hot plate 55° C.
Experimental: An in vivo protocol was utilized to determine the effectiveness of nicotinic acetylcholine receptor ligands as analgesic agents in the mouse hot plate paradigm.
Separate groups of mice, (n=8/group) were utilized for each dose group. All drugs were administered by the intraperitoneal route of administration. Test drugs were dissolved in water to make a 6.2 mM stock solution. Animals were dosed with this solution (10 mL/kg body weight) for a 62 micromol/kg dose. Lower doses were administered similarly, following serial dilution of the stock solution in half-log increments. Animals were dosed 30 minutes prior to testing in the hot plate. The hot-plate utilized was an automated analgesia monitor (Model #AHP16AN, Omnitech Electronics, Inc. of Columbus, Ohio). The temperature of the hot plate was maintained at 55° C. and a cut-off time of 180 seconds was utilized. A control was run against each compound tested. Latency until the tenth jump was recorded as the dependent measure. An increase in the tenth jump latency relative to the control was considered a significant effect.

In the case of “5-[(S)-2-amino-1-propyloxy]-2-chloro-3-(4-vinylpyridinyl)pyridine p-toluenesulfonic acid [Example 13]”, the Ki [1] is reported as 0.0761 nM.
In the case of `C[C@@H](COc1cnc(Cl)c(C=Cc2ccncc2)c1)N(C)C` (single isomer, unassigned) [Example 14], the melting point is reported as 79 to 81 °C and the “Analgesic MED (μmol/kg)” value [2] is reported as “* (no effect at 62)”.
For `C[C@H](COc1cnc(Cl)c(C=Cc2ccncc2)c1)N(C)C` (single isomer, unassigned) [Example 39], the melting point was 81 to 83 °C and the “Analgesic MED (μmol/kg)” value [2] was “* (no effect at 62)”.
Work on `CN(C)[C@H](COc1cnc(Cl)c(C=Cc2ccncc2)c1)Cc1ccccc1` [Example 24, 5-[(S)-2-N-dimethyl-amino-3-phenyl-1-propyloxy]-2-chloro-3-(4-vinylpyridinyl)pyridine di-p-toluenesulfonic acid] yielded a minimal effective dose ([2]; Mus musculus, ip, 0.5 h, read-out: Analgesic MED) of over 62 µmol/kg.
For `C[C@@H](COc1ccc(Cl)nc1)N(C)C.Cc1ccc(S(=O)(=O)O)cc1` [Example 27, 5-[(S)-2-dimethylamino-1-propyloxy]-2-chloro pyridine p-toluenesulfonic acid], the “Analgesic MED (μmol/kg)” value [2] was “* (no effect at 62)”.
